{"source": "patent US20140349989A1", "about": "“COMPOUNDS AND THERAPEUTIC USES THEREOF” (Alzheimer's Institute of America, priority 2011, published 2014)"}
{"test": "Cytotoxicity Assay (HCT116, CellTiter-Glo)", "format": "cell-based", "details": "human, HCT116 cell cytotoxicity IC50", "procedure": "(§1) HCT116 cells were seeded in 96 well plates (Greiner Bio-One, Monroe, N.C.) and allowed to settle overnight. Test compound dissolved in dimethyl sulfoxide (DMSO) was added and drug incubation proceeded for 72 hours. When applicable, a 1000× solution of nicotinic acid (NA; Sigma-Aldrich, St. Louis, Mo.) dissolved in water was generated, and 1×NA (10 μM final concentration) was added at the same time as the test compound. After 72 hour, 50 μL of CellTiter-Glo Luminescent Cell Viability Assay reagent (Promega Corporation, Madison, Wis.) was added to cells in 200 μL of cellular media. After a proscribed incubation period, luminescence was measured using a TopCount NXT plate reader (PerkinElmer, Waltham, Mass.).", "units": {"IC50 at 72 h": "nM"}}
{"smiles": "O=C(NCc1cccnc1)Nc1ccc(-n2nc(C(=O)N3CCC(N4CCCC4)CC3)cc2C2CC2)cc1", "note": "[Compound 74, 1-[4-(5-Cyclopropyl-3-{[4-(pyrrolidin-1-yl)piperidin-1-yl]carbonyl}-1H-pyrazol-1-yl)phenyl]-3-(pyridin-3-ylmethyl)urea]", "IC50 at 72 h": "≥ 100"}
{"smiles": "CCOC(=O)c1c(C)n(-c2ccc(NC(=O)NCc3cccnc3)cc2)c2ccccc12", "note": "[Compound 79, Ethyl 2-methyl-1-(4-{[(pyridin-3-ylmethyl)carbamoyl]amino}phenyl)-1H-indole-3-carboxylate]", "IC50 at 72 h": "≥ 100"}
{"smiles": "O=C(NCc1cccnc1)Nc1ccc(N2CC3(CCNCC3)c3ccccc32)cc1", "note": "[Compound 80, 1-(Pyridin-3-ylmethyl)-3-[4-(spiro[indole-3,4′-piperidin]-1(2H)-yl)phenyl]urea]", "IC50 at 72 h": "< 100"}
{"smiles": "Cc1c(Cc2ccc(F)cc2)c(C(=O)N2CCC(N3CCCCC3)CC2)nn1-c1ccc(NC(=O)NCc2cccnc2)cc1", "note": "[Compound 81, 1-{4-[3-(1,4′-Bipiperidin-1′-ylcarbonyl)-4-(4-fluorobenzyl)-5-methyl-1H-pyrazol-1-yl]phenyl}-3-(pyridin-3-ylmethyl)urea]", "IC50 at 72 h": "≥ 100"}
{"smiles": "O=C(NCc1cccnc1)Nc1ccc(-n2cc(C3CCN(CC(F)(F)F)CC3)c3ccccc32)cc1", "note": "[Compound 82, 1-(Pyridin-3-ylmethyl)-3-(4-{3-[1-(2,2,2-trifluoroethyl)piperidin-4-yl]-1H-indol-1-yl}phenyl)urea]", "IC50 at 72 h": "< 100"}
{"smiles": "O=C(NCc1cccnc1)Nc1ccc(-n2cc(C(=O)N3CCC(O)CC3)c3ccccc32)c(Cl)c1", "note": "[Compound 88, 1-(3-Chloro-4-{3-[(4-hydroxy-piperidin-1-yl)carbonyl]-1H-indol-1-yl}phenyl)-3-(pyridin-3-ylmethyl)urea]", "IC50 at 72 h": "≥ 100"}
{"smiles": "O=C(NCCCCCCc1c[nH]c2ccccc12)NCc1cccnc1", "note": "[Compound 89, 1-[6-(1H-Indol-3-yl)hexyl]-3-(pyridin-3-ylmethyl)urea]", "IC50 at 72 h": "≥ 100"}
{"test": "Cytotoxicity Assay (HCT116, CellTiter-Glo)", "format": "cell-based", "details": "human, HCT116 cells, 72 hours drug incubation, CellTiter-Glo luminescence; read-out: HCT116 cell cytotoxicity IC50", "procedure": "as §1", "units": {"IC50 at 72 h": "nM"}}
{"smiles": "O=C(NCc1cccnc1)Nc1ccc(-n2cc(CCN3CCC(F)(F)C3)c3ccccc32)cc1", "note": "[Compound 69, 1-(4-{3-[2-(3,3-Difluoropyrrolidin-1-yl)ethyl]-1H-indol-1-yl}phenyl)-3-(pyridin-3-ylmethyl) urea]", "IC50 at 72 h": "< 100"}
{"smiles": "O=C(NCc1cccnc1)Nc1ccc(-n2c(Cl)c(C(=O)N3CCN(C4CCCCC4)CC3)c3ccccc32)cc1", "note": "[Compound 70, 1-(4-{2-Chloro-3-[(4-cyclohexyl-piperazin-1-yl)carbonyl]-1H-indol-1-yl}phenyl)-3-(pyridin-3-ylmethyl)urea]", "IC50 at 72 h": "< 100"}
{"smiles": "C[C@H](O)C(=O)N1CCC2(CC1)CN(c1ccc(NC(=O)NCc3cccnc3)cc1)c1ccccc12", "note": "[Compound 71, 1-(4-{1′-[(2S)-2-Hydroxypropanoyl]spiro[indole-3,4′-piperidin]-1(2H)-yl}phenyl)-3-(pyridin-3-ylmethyl) urea]", "IC50 at 72 h": "< 100"}
{"smiles": "O=C(NCc1cccnc1)Nc1ccc(-n2cc(-c3nccn3CCN3CCCC3)c3ccccc32)cc1", "note": "[Compound 72, 1-(Pyridin-3-ylmethyl)-3-[4-(3-{1-[2-(pyrrolidin-1-yl)ethyl]-1H-imidazol-2-yl}-1H-indol-1-yl)phenyl] urea]", "IC50 at 72 h": "< 100"}
{"smiles": "Cc1c(-c2ccccc2)c(C(=O)N2CCC(N3CCCCC3)CC2)nn1-c1ccc(NC(=O)NCc2cccnc2)cc1", "note": "[Compound 73, 1-{4-[3-(1,4′-Bipiperidin-1′-ylcarbonyl)-5-methyl-4-phenyl-1H-pyrazol-1-yl]phenyl}-3-(pyridin-3-ylmethyl)urea]", "IC50 at 72 h": "< 100"}
{"smiles": "O=C(NCc1cccnc1)Nc1ccc(-c2nn(CCN3CCCCC3)c3ccccc23)cc1", "note": "[Compound 75, 1-[4-[1-[2-(1-piperidyl)ethyl]indazol-3-yl]phenyl]-3-(3-pyridylmethyl)urea]", "IC50 at 72 h": "< 100"}
{"smiles": "CN(c1nn(-c2ccc(NC(=O)NCc3cccnc3)cc2)c2ccccc12)C1CCNC1", "note": "(stereo not shown) [Compound 76, 1-(4-{3-[Methyl (pyrrolidin-3-yl)amino]-1H-indazol-1-yl}phenyl)-3-(pyridin-3-ylmethyl)urea]", "IC50 at 72 h": "< 100"}
{"smiles": "Cc1c(C(=O)N2CCC(N3CCC(F)(F)CC3)CC2)c2ccccc2n1-c1ccc(NC(=O)NCc2cccnc2)cc1", "note": "[Compound 77, 1-(4-{3-[(4,4-Difluoro-1,4′-bipiperidin-1′-yl)carbonyl]-2-methyl-1H-indol-1-yl}phenyl)-3-(pyridin-3-ylmethyl)urea]", "IC50 at 72 h": "< 100"}
{"smiles": "COC(=O)c1cn(Cc2ccccc2)c2cc(NC(=O)NCc3cccnc3)ccc12", "note": "[Compound 83, Methyl 1-benzyl-6-{[(pyridin-3-ylmethyl)carbamoyl]ami-no}-1H-indole-3-carboxylate]", "IC50 at 72 h": "≥ 100"}
{"smiles": "O=C(NCc1cccnc1)Nc1ccc(-n2nc(CC(=O)N3CCCCC3)c3ccccc32)cc1", "note": "[Compound 84, 1-(4-{3-[2-Oxo-2-(piperidin-1-yl)ethyl]-1H-indazol-1-yl}phenyl)-3-(pyridin-3-ylmethyl)urea]", "IC50 at 72 h": "< 100"}
{"smiles": "COc1cccc(-c2cn(-c3ccc(NC(=O)NCc4cccnc4)cc3)nc2C(=O)N2CCC(N3CCCCC3)CC2)c1", "note": "[Compound 85, 1-{4-[3-(1,4′-Bipiperidin-1′-ylcarbonyl)-4-(3-methoxyphenyl)-1H-pyrazol-1-yl]phenyl}-3-(pyridin-3-ylmethyl)urea]", "IC50 at 72 h": "< 100"}
{"smiles": "O=C(NCc1cccnc1)Nc1ccc(-n2nc(N3CCN(C4CCCCC4)CC3)c3ccccc32)cc1", "note": "[Compound 86, 1-{4-[3-(4-Cyclo-hexylpiperazin-1-yl)-1H-indazol-1-yl]phenyl}-3-(pyridin-3-ylmethyl)urea]", "IC50 at 72 h": "< 100"}
{"smiles": "CC(C)(C)OC(=O)N1CCC(CCn2ccnc2-c2cn(-c3ccc(NC(=O)NCc4cccnc4)cc3)c3ccccc23)CC1", "note": "[Compound 87, tert-Butyl 4-(2-{2-[1-(4-{[(pyridin-3-yl-methyl)carbamoyl]amino}phenyl)-1H-indol-3-yl]-1H-imidazol-1-yl}ethyl)piperidine-1-carboxylate]", "IC50 at 72 h": "< 100"}
{"smiles": "O=C(NCCCCC(=O)c1cn(C2CCNCC2)c2ccccc12)NCc1cccnc1", "note": "[Compound 90, 1-{5-Oxo-5-[1-(piperidin-4-yl)-1H-indol-3-yl]pentyl}-3-(pyridin-3-ylmethyl)urea]", "IC50 at 72 h": "< 100"}
{"smiles": "O=C(NCc1cccnc1)Nc1ccc(-c2nn(C3CNC3)c3ccccc23)cc1", "note": "[Compound 91, 1-{4-[1-(Azetidin-3-yl)-1H-indazol-3-yl]phenyl}-3-(pyridin-3-ylmethyl) urea]", "IC50 at 72 h": "< 100"}
{"smiles": "O=C(NCc1cccnc1)Nc1ccc(-n2cc(C(=O)N3CCN(C4CCCCC4)CC3)c3ccccc32)c(Cl)c1", "note": "[Compound 92, 1-(3-Chloro-4-{3-[(4-cyclohexyl-piperazin-1-yl)carbonyl]-1H-indol-1-yl}phenyl)-3-(pyridin-3-ylmethyl)urea]", "IC50 at 72 h": "< 100"}
{"smiles": "Cc1c(C(=O)N2CCN(C3CCC(F)(F)CC3)CC2)c2ccccc2n1-c1ccc(NC(=O)NCc2cccnc2)cc1", "note": "[Compound 93, 1-[4-(3-{[4-(4,4-Difluoro-cyclohexyl)pipe-razin-1-yl]carbonyl}-2-methyl-1H-indol-1-yl)phenyl]-3-(pyridin-3-ylmethyl)urea]", "IC50 at 72 h": "< 100"}
{"smiles": "O=C(NCc1cccnc1)Nc1ccc(-n2cc([C@H]3CC[C@@H](N4CC(F)(F)C4)CC3)c3ccccc32)cc1", "note": "[Compound 94, 1-[4-[3-[4-(3,3-difluoroazetidin-1-yl)cyclohexyl]indol-1-yl]phenyl]-3-(3-pyridylmethyl)urea]", "IC50 at 72 h": "< 100"}
{"smiles": "CCN1CCN(C(=O)c2cn(-c3ccc(NC(=O)NCc4cccnc4)cc3Cl)c3ccccc23)CC1", "note": "[Compound 95, 1-(3-Chloro-4-{3-[(4-ethylpiperazin-1-yl)carbonyl]-1H-indol-1-yl}phenyl)-3-(pyridin-3-ylmethyl)urea]", "IC50 at 72 h": "< 100"}
{"smiles": "O=C(NCc1cccnc1)Nc1ccc2c(c1)c(C(=O)NCCCN1CCCCC1)cn2Cc1ccccc1", "note": "[Compound 96, 1-Benzyl-N-[3-(piperidin-1-yl)propyl]-5-{[(pyridin-3-yl-methyl)carbamoyl]amino}-1H-indole-3-carboxamide]", "IC50 at 72 h": "≥ 100"}
{"smiles": "O=C(NCCCCCCC1CNc2ccccc21)NCc1cccnc1", "note": "(stereo not shown) [Compound 97, 1-[6-(2,3-Dihydro-1H-indol-3-yl)hexyl]-3-(pyridin-3-ylmethyl)urea]", "IC50 at 72 h": "< 100"}
{"smiles": "O=C(NCc1cccnc1)Nc1ccc(-n2nc(N3CCNCC3)c3ccccc32)cc1", "note": "[Compound 98, 1-{4-[3-(Piperazin-1-yl)-1H-indazol-1-yl]phenyl}-3-(pyridin-3-ylmethyl)urea]", "IC50 at 72 h": "< 100"}
{"smiles": "O=C(NCc1cccnc1)Nc1ccc(-n2cc(C3CCN(CCF)CC3)c3ccccc32)cc1", "note": "[Compound 99, 1-(4-{3-[1-(2-Fluoroethyl)piperidin-4-yl]-1H-indol-1-yl}phenyl)-3-(pyridin-3-ylmethyl)urea]", "IC50 at 72 h": "< 100"}
{"smiles": "O=C(NCc1cccnc1)Nc1ccc(-n2cc(CCN3CCOCC3)c3ccccc32)cc1", "note": "[Compound 100, 1-(4-{3-[2-(Morpholin-4-yl)ethyl]-1H-indol-1-yl}phenyl)-3-(pyridin-3-ylmethyl)urea]", "IC50 at 72 h": "< 100"}
{"smiles": "CN1CCN(C(=O)Cc2cn(-c3ccc(NC(=O)NCc4cccnc4)cc3)c3ccccc23)CC1", "note": "[Compound 101, 1-(4-{3-[2-(4-Methylpiperazin-1-yl)-2-oxoethyl]-1H-indol-1-yl}phenyl)-3-(pyridin-3-ylmethyl)urea]", "IC50 at 72 h": "< 100"}
{"smiles": "O=C(NCc1cccnc1)Nc1ccc(-n2cc(-c3nccn3CCN3CCOCC3)c3ccccc32)cc1", "note": "[Compound 102, 1-[4-(3-{1-[2-(Morpholin-4-yl)ethyl]-1H-imidazol-2-yl}-1H-indol-1-yl)phenyl]-3-(pyridin-3-ylmethyl)urea]", "IC50 at 72 h": "< 100"}
{"smiles": "O=C(NCc1cncc(F)c1)Nc1ccc(-n2cc(CCN3CCOCC3)c3ccccc32)cc1", "note": "[Compound 103, 1-[(5-Fluoro-pyridin-3-yl)methyl]-3-(4-{3-[2-(morpholin-4-yl)ethyl]-1H-indol-1-yl}phenyl)urea]", "IC50 at 72 h": "< 100"}
